In patent US20250214991A1 (Oncopia Therapeutics, Inc. d/b/a/ SK Life Science Labs, priority 2022, published 2025) one finds IC50, DC50 and Dmax data, which are given here for eight compounds.

As a reminder, the IC50 is the concentration that inhibits the measured activity by half. The low end stands for greater potency in that assay, the high end for weaker potency in that assay.

The target of assay [1] is CRBN/DDB1 (Homo sapiens (Human), UniProt Q96SW2). Description: IC50 measurements for binding to CRBN/DDB1 (HTRF). Particulars: His tagged CRBN+DDB, Cy5-labeled Thalidomide probe, one hour. The gist of the method:
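HTRF competition binding with 2 nM His-tagged CRBN-DDB1 complex, 60 nM Cy5-thalidomide probe and 0.4 nM anti-His Tb cryptate in 50 mM HEPES pH 7.5, 1 mM TCEP, 0.01% Brij-35, 50 mM NaCl, 0.1% BSA. Read after 1 h at room temperature; IC50 from four-parameter dose-response fit.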
A general note: In TR-FRET formats the signal depends on donor and acceptor labels being close together.

For assay [2], the target named is T1, IKZF2 (Homo sapiens (Human), UniProt Q96SW2+Q9UKS7). Description: In vitro IKZF2 FACS Assay in Jurkat cells. The settings on record: 24 hrs; for DC50: half maximal degradation concentration; for Dmax: maximal degradation percentage. Type of assay: cell-based. Here is the method:
In vitro IKZF2 FACS Assay
DC50, A: <1 nM; B: 1-10 nM; C: 10-100 nM; D: 100-1000 nM; E: >1000 nM. Dmax, A: >80%; B: 60-80%; C: 40-60%; D: 20-40%; E: <20%.

Assay [3] concerns the target T1, IKZF2. Description: In vitro IKZF2 HiBit Assay (HEK293T Flp-in-HiBiT cells). Particulars: HEK293T Flp-in-HiBiT cells, 6 hrs incubation; for DC50: read-out: IKZF2 HiBit DC50; for Dmax: HEK-293T, read-out: IKZF2 HiBit Dmax (%). Type of assay: cell-based. In outline: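 HEK293T Flp-in cells carrying an endogenous N-terminal HiBiT tag on IKZF2 were exposed to compound for 6 h at 0.1% DMSO. The dilution series was 11 doses at 3-fold, diluted from 1 mM. Nano-Glo HiBiT lytic luminescence, normalized to DMSO, gave DC50 for 50% degradation and Dmax across the concentration range, both reported in letter bins.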
Background: HiBiT is a short tag that completes a luciferase, so light tracks the accessible tagged protein.

Assay [4] has as its target IKZF1 (Homo sapiens (Human), UniProt Q13422+Q96SW2). Briefly: In vitro IKZF1 HiBit Assay (HEK293T Flp-in-HiBiT-IKZF1 stable cell line). In kind it is cell-based. The settings on record: HEK293T Flp-in-HiBiT-IKZF1 stable cell line, 6 hrs incubation; for DC50: read-out: IKZF1 HiBit DC50; for Dmax: HEK-293T, read-out: IKZF1 HiBit Dmax (%). In outline:
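HEK293T Flp-in cells carrying N-terminal HiBiT-tagged IKZF1 were exposed to compound (0.1% DMSO) for 6 h at 3000 cells/well. HiBiT luminescence was read after lytic LgBiT detection. DC50 and Dmax were taken from DMSO-normalized dose-response curves.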

Chain of IKZF1 (Q13422 whole entry): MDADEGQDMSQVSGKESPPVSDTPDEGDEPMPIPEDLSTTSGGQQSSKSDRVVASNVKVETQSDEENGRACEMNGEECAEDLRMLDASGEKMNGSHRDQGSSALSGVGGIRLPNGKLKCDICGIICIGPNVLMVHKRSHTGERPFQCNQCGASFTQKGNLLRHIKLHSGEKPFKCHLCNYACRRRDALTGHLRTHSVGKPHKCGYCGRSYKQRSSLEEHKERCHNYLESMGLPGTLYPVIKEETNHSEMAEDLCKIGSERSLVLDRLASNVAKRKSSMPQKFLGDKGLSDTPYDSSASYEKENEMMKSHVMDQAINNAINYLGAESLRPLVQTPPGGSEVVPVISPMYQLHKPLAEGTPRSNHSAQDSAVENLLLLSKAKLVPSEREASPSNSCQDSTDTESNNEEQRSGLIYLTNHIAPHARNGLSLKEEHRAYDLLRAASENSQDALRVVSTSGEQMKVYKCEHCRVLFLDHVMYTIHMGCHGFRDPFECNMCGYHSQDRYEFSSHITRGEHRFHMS
Chain of IKZF1 (Q96SW2 whole entry): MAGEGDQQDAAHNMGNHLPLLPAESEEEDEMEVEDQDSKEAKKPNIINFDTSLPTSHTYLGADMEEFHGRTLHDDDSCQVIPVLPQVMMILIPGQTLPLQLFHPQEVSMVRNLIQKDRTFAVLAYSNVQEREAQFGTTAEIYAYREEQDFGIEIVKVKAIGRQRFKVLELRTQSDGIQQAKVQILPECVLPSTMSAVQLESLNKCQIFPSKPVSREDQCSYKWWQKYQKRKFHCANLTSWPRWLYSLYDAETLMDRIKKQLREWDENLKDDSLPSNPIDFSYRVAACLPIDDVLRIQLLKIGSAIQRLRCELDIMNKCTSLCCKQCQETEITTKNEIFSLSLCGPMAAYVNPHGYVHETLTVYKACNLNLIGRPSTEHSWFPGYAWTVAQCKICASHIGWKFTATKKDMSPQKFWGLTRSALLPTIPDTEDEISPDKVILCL
Chain of IKZF1 (Q16531 2-1140 partner): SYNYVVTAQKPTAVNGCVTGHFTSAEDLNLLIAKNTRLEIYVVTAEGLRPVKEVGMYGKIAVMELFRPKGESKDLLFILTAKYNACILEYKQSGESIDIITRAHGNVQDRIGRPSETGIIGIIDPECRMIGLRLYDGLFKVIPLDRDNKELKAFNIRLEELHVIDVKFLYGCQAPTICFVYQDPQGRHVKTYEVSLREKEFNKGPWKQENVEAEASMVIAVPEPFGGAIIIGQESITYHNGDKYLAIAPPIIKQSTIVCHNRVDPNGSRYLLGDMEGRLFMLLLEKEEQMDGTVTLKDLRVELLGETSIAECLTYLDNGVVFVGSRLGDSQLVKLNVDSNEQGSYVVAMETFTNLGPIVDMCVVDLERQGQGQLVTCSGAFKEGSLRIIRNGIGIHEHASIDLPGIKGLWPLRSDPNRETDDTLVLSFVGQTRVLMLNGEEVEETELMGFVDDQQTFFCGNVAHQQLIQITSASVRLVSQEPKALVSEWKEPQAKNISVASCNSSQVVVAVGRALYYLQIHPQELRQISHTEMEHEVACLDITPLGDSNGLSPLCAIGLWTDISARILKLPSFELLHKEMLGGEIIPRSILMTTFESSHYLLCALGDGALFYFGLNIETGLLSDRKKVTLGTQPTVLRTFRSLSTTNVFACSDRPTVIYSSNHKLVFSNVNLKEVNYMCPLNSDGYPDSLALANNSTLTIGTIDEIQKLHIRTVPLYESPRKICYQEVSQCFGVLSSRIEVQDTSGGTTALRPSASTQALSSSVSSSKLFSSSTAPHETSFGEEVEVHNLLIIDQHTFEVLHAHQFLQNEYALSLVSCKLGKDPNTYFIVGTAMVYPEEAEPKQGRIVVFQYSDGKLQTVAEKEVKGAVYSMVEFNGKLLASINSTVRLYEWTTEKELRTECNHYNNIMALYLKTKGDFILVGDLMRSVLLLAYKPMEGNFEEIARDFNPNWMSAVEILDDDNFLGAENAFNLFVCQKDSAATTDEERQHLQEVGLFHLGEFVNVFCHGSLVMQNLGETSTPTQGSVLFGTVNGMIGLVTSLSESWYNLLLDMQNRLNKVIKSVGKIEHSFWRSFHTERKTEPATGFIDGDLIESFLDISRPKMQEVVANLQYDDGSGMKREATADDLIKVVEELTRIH
Chain of CRBN/DDB1 (Q96SW2 whole entry, species assumed): as the sequence (Q96SW2 whole entry) above
Chain of CRBN/DDB1 (Q16531 whole entry partner, species assumed): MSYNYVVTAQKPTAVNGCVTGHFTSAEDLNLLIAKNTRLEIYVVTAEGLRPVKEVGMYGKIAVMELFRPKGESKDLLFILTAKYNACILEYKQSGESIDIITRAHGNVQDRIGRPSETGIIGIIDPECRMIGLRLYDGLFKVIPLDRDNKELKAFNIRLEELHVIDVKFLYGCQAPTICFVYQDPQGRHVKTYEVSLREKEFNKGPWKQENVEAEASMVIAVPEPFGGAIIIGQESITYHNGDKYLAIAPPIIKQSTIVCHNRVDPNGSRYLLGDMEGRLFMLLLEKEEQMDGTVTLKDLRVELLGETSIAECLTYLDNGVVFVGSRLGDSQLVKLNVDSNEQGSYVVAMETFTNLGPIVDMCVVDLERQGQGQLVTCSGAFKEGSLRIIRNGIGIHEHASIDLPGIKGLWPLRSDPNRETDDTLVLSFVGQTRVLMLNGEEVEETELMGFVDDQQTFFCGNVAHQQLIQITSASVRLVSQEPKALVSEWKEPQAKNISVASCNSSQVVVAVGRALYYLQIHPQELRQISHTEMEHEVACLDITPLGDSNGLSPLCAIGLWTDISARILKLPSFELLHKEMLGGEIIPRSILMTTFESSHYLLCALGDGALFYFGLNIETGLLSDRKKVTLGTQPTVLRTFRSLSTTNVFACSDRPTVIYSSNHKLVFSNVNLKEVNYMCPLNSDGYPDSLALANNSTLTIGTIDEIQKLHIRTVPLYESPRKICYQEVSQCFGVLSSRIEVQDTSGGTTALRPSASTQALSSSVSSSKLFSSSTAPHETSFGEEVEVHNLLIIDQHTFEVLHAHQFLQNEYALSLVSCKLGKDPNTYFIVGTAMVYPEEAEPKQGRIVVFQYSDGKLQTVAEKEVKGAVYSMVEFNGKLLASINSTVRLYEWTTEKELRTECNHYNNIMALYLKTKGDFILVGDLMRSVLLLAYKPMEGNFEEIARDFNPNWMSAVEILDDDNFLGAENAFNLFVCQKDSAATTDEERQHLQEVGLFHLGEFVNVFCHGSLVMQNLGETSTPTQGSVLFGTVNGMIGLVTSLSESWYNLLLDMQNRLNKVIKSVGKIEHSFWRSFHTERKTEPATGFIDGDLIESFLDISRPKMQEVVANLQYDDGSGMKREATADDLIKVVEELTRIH
T1 sequence (Q9UKS7 whole entry): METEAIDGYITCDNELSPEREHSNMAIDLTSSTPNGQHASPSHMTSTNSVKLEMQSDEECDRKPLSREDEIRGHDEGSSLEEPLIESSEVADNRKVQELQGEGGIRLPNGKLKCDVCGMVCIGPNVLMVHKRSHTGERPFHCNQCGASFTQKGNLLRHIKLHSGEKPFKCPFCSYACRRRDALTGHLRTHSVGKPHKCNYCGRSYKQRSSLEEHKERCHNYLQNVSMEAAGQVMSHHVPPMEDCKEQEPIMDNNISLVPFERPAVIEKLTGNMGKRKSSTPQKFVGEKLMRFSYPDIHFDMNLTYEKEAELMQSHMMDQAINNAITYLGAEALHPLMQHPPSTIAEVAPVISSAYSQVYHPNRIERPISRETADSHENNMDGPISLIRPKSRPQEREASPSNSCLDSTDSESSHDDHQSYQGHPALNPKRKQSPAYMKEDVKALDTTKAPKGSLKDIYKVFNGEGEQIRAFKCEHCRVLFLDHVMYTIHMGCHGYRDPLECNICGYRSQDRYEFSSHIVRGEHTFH
T1 sequence (Q96SW2 whole entry): as the sequence (Q96SW2 whole entry) above
T1 sequence (Q16531 2-1140 partner): as the sequence (Q16531 2-1140 partner) above

`CC(C)(NCc1cc(-c2ccc3c(c2)CN(C2CCC(=O)NC2=O)C3=O)n2cncc2c1)c1ccccc1` (stereo not drawn) [Example 18, 3-(1-oxo-5-(7-(((2-phenylpropan-2-yl)amino)methyl)imidazo[1,5-a]pyridin-5-yl)isoindolin-2-yl) piperidine-2,6-dione] returned an IC50 in assay [1] of 500 to 1000 nM. For the same compound, in assay [2], the DC50 lay in the range of 100 to 1000 nM and the Dmax lay within 40 to 60%.
On the same counts, the results for `Cn1cnc2c(-c3ccc4c(c3)CN(C3CCC(=O)NC3=O)C4=O)cc(CNCCc3ccccc3Cl)cc21` (stereo not drawn) [Example 51, 3-(5-(6-(((2-chlorophenethyl)amino)methyl)-1-methyl-1H-benzo[d]imidazol-4-yl)-1-oxoisoindolin-2-yl) piperidine-2,6-dione] are 100 to 500 nM, over 1000 nM and 20 to 40%.
The matching figures for `CN(Cc1cc(-c2ccc3c(c2)CN(C2CCC(=O)NC2=O)C3=O)n2cncc2c1)C(C)(C)c1ccccc1` (stereo not drawn) [Example 19, 3-(5-(7-((methyl (2-phenylpropan-2-yl)amino)methyl)imidazo[1,5-a]pyridin-5-yl)-1-oxoisoindolin-2-yl) piperidine-2,6-dione]: 1000 to 5000 nM, 100 to 1000 nM and 20 to 40%.
On the same counts, the results for `O=C1CCC(N2Cc3cc(-c4cc(CN5CCOCC5)cc5cncn45)ccc3C2=O)C(=O)N1` (stereo not drawn) [Example 4, 3-(5-(7-(morpholinomethyl)imidazo[1,5-a]pyridin-5-yl)-1-oxoisoindolin-2-yl) piperidine-2,6-dione] are 1000 to 5000 nM, over 1000 nM and 20 to 40%.
Turning to `CC(C)Nc1n[nH]c2c(CN3CC4(CCOCC4)C3)cc(-c3ccc4c(c3F)CN(C3CCC(=O)NC3=O)C4=O)nc12` (stereo not drawn) [Example 289, 3-(5-(7-((7-oxa-2-azaspiro[3.5]nonan-2-yl)methyl)-3-(isopropylamino)-1H-pyrazolo[4,3-b]pyridin-5-yl)-4-fluoro-1-oxoisoindolin-2-yl) piperidine-2,6-dione], the DC50 in assay [3] was 1 to 10 nM; in assay [4] it was 10 to 100 nM; in assay [2], 1 to 10 nM. Also, the Dmax in assay [3] is over 80%; in assay [4], 40 to 60%; in assay [2], over 80%.
Take `Cc1cn(C2COC2)c2nc(-c3ccc4c(c3)CN(C3CCC(=O)NC3=O)C4=O)cc(CN3CCCC3)c12` (stereo not drawn) [Example 240, 3-(5-(3-methyl-1-(oxetan-3-yl)-4-(pyrrolidin-1-ylmethyl)-1H-pyrrolo[2,3-b]pyridin-6-yl)-1-oxoisoindolin-2-yl) piperidine-2,6-dione]: the DC50 in assay [3] is 1 to 10 nM; in assay [4], over 10000 nM; in assay [2], 1 to 10 nM. Moreover, the Dmax in assay [3] was over 80%; in assay [4] it was under 20%; in assay [2], over 80%.
On to `O=C1CCC(N2Cc3cc(-c4cc(CN5CCCC5)c5cnn(C6CCC6)c5n4)ccc3C2=O)C(=O)N1` (stereo not drawn) [Example 206, 3-(5-(1-cyclobutyl-4-(pyrrolidin-1-ylmethyl)-1H-pyrazolo[3,4-b]pyridin-6-yl)-1-oxoisoindolin-2-yl) piperidine-2,6-dione], for which the DC50 in assay [3] is 1 to 10 nM; in assay [4], over 10000 nM; in assay [2], 1 to 10 nM. The Dmax in assay [3] was over 80%; in assay [4], under 20%; in assay [2] it was over 80%.
Turning to `O=C1CCC(N2Cc3cc(-c4nc(CN5CCCC5)c5ccn(C6CS(=O)(=O)C6)c5n4)ccc3C2=O)C(=O)N1` (stereo not drawn) [Example 220, 3-(5-(7-(1,1-dioxidothietan-3-yl)-4-(pyrrolidin-1-ylmethyl)-7H-pyrrolo[2,3-d]pyrimidin-2-yl)-1-oxoisoindolin-2-yl) piperidine-2,6-dione], the DC50 in assay [3] was 10 to 100 nM; in assay [4], over 10000 nM; in assay [2] it was 10 to 100 nM. Besides, the Dmax in assay [3] was 60 to 80%; in assay [4], under 20%; in assay [2], 40 to 60%.
